The values that follow come from US6075120A (priority 1995, dated 2000).

In one series the target is T1, BK2 -receptor (Rattus norvegicus, UniProt P25023).
T1 construct: BKAn activity (pA2) was assessed using the rat uterus preparation; from tissue; host or cells: rat uterus
T1 sequence (P25023 1-396): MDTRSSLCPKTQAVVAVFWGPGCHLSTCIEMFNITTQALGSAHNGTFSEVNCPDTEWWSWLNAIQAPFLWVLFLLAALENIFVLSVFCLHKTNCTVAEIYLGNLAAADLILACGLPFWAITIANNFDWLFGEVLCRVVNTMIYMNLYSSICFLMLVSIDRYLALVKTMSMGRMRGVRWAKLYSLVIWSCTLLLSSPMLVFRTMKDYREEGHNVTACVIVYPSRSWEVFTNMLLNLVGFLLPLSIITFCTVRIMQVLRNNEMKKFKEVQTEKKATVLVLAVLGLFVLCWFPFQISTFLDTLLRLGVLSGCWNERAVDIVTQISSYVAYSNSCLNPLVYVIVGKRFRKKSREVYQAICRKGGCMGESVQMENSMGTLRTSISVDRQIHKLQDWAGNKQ
Description: rat uterus assay of bradykinin antagonist (BKAn) activity. The series is classed as cell-based. As to conditions: bradykinin induced uterine contraction.

Series [1] has as its target T2, purified human neutrophil elastase (HNE) (Homo sapiens, UniProt P08246).
T2 sequence (P08246 30-247 limits assumed): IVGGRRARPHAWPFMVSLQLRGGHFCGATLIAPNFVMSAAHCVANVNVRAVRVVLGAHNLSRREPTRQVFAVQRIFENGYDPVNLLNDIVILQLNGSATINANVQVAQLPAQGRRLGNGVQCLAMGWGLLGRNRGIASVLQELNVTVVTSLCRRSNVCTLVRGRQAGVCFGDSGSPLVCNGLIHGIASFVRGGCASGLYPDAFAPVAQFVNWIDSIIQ
Description: neutrophil elastase inhibition with chromogenic substrate MOS-AAPV-pNA. The series is classed as biochemical. As to conditions: MOS-AAPV-pNA 0.5 mM, HNE 10-20 nM, pH 7.5, 25 C; read-out: Ki^ss (HNE).

In series [2] the test system is mice injected in the hind limb foot pad with formalin. Description: mouse formalin test (inflammatory and neurogenic pain, hind limb licking). In kind it is in vivo. As to conditions: for narcotic / behavioral side effects observed in the formalin test: oxymorphone at highest doses 0.9 and 3.0 umoles/kg, CP-0494 over several hours. How it is done:
In order to test the activity of these compounds in vivo, a model of inflammatory and neurogenic pain was used. This model measures the behavioral responses of mice injected in the hind limb foot pad with 50 ul of formalin. Control mice (open circles) show a characteristic bi-phasic response to the injected formalin wherein there is a short lasting initial response followed by a quiescent period which is then followed by a sustained period of hind limb licking. The licking behavior is interpreted to mean that the limb is irritated and painful. The greater the time spent licking, the more painful the stimulus.

For a further series, the system named is cyclooxygenase. Description: rat lung parenchymal strips challenged with arachidonic acid. Particulars: contraction in response to exogenously applied arachidonic acid. The series is classed as cell-based. An excerpt: As mentioned previously, for the COI to work it may need to be dissociated from the BKAn so as to allow for its intracellular penetration. Therefore, in order to evaluate the functional activity of a BKAn/COI heterodimer, CP-0460 was exposed to rat lung parenchymal strips which were then challenged with arachidonic acid. This tissue is known to contain both non-specific esterase activity as well as to convert arachidonic acid to thromboxane (via a cyclooxygenase dependent pathway) which is then ultimately responsible for the smooth muscle contraction observed in this assay.

The nature of series [3]: freshly obtained normal human plasma. As to conditions: 37° C.

Square brackets hold non-standard residues; d marks the D form. Peptide text beside a SMILES is read from it. * marks the point of attachment. X1 = CN1CC[C@]23c4c5ccc(O)c4O[C@H]2C(NCCSC2CC(=O)N(CCCCCCN4C(=O)CC(*)C4=O)C2=O)CC[C@@]3(O)[C@H]1C5; Hyp = O=C(O)[C@@H]1C[C@@H](O)CN1

What is called Ki is the equilibrium dissociation constant of an inhibitor or competing ligand from its target. Take `CC(C)(C)c1ccc(C(C)(C)C(=O)Oc2ccc(S(=O)(=O)CCCC(=O)O)cc2)cc1` [CE-1218, 4-(3'-carboxy-propylsulfonyl)phenyl 4-tert-butylphenylisobutyrate]: the “pA2 --Rat Uterus” value at BK2 -receptor was “inactive”. For the same compound, in series [1], the Ki amounted to 10.5 nM.

Regarding `CN1CC[C@]23c4c5ccc(O)c4O[C@H]2C(=O)CC[C@@]3(O)[C@H]1C5` [oxymorphone], in series [2] (50 ul formalin in hind limb foot pad), the “effect on licking behavior in both phases of the formalin test” value is “reduces both phases of the licking behavior”. Besides, the “narcotic / behavioral side effects observed in the formalin test” value in series [2] was “significant behavioral obtundation resulting in catalepsy and frank respiratory depression”.

Take `CC(C)C[C@H](NC(=O)[C@@H](Cc1ccccc1)NC(=O)[C@H](CSC1CC(=O)N(CCCCCCN2C(=O)CC(SCCNC3CC[C@@]4(O)[C@H]5Cc6ccc(O)c7c6[C@@]4(CCN5C)[C@H]3O7)C2=O)C1=O)NC(=O)[C@H](Cc1ccccc1)NC(=O)CNC(=O)[C@@H]1C[C@@H](O)CN1C(=O)[C@@H]1CCCN1C(=O)[C@H](CCCNC(=N)N)NC(=O)[C@H](N)CCCNC(=N)N)C(=O)N[C@@H](CCCNC(=N)N)C(=O)O` (some centres unmarked) [CP-0494] (H-[dR]RP[Hyp]GFC(X1)[dF]LR-OH): in series [2], the “narcotic / behavioral side effects observed in the formalin test” value was “no observable narcotic effects”. With `COc1ccc2c(c1)c(CC(=O)O)c(C)n2C(=O)c1ccc(Cl)cc1` [indomethacin], on BK2 -receptor, the “pA2 --Rat Uterus” value is “no effect”. Moreover, the “log dose ratio shift” value in the series with cyclooxygenase is given as 0.998±0.425. Turning to DR-R-P-J-G-F-C-DF-L-R, the cleaved bond entry in series [3] is on record as “Leu8-Arg9”.
